Source: patent publication US8551984B2, “Aminopyrimidines as SYK inhibitors” (Merck Sharp & Dohme Corp., priority 2009, dated 2013)

Target: rhSYK (Homo sapiens, UniProt P43405)
Experiment: biochemical

| SMILES | IC50 |
| --- | --- |
| Cc1cc(Nc2nccc(C(F)(F)F)n2)cc(-c2cnc([C@]3(O)CC[C@@H](C(=O)N4CCOCC4)CC3)s2)c1 [Example 119-29] | < 0.1 µM |
| Cc1cc(Nc2nccc(C(F)(F)F)n2)cc(-c2cnc(C3(O)CCC(C(=O)NCCC(N)=O)CC3)s2)c1 (centres unmarked) [Example 119-30] | < 0.1 µM |
| COCCCNC(=O)[C@H]1CC[C@](O)(c2ncc(-c3cc(C)cc(Nc4nccc(C(F)(F)F)n4)c3)s2)CC1 [Example 119-31] | < 0.1 µM |
| Cc1cc(Nc2nccc(C(F)(F)F)n2)cc(-c2cnc(C3(O)CCC(C(=O)NCC(O)CO)CC3)s2)c1 (centres unmarked) [Example 119-32] | < 0.1 µM |
| Cc1cc(Nc2nccc(C(F)(F)F)n2)cc(-c2cnc(C3(O)CCC(C(=O)Nc4ccncc4)CC3)s2)c1 (centres unmarked) [Example 119-34] | < 0.1 µM |
| Cc1cc(Nc2nccc(C(F)(F)F)n2)cc(-c2cnc([C@]3(O)CC[C@@H](C(=O)Nc4ccccn4)CC3)s2)c1 [Example 119-35] | < 0.1 µM |
| Cc1cc(Nc2nccc(C(F)(F)F)n2)cc(-c2cnc([C@]3(O)CC[C@@H](C(=O)Nc4cccnc4)CC3)s2)c1 [Example 119-36] | < 0.1 µM |
| Cc1cc(Nc2nccc(C(F)(F)F)n2)cc(-c2cnc(C3(O)CCC(C(=O)N4CCC(C#N)C4)CC3)s2)c1 (centres unmarked) [Example 119-37] | < 0.1 µM |
| Cc1cc(Nc2nccc(C(F)(F)F)n2)cc(-c2cnc(C3(O)CCC(C(=O)NCc4cc[nH]n4)CC3)s2)c1 (centres unmarked) [Example 119-39] | < 0.1 µM |
| CCN(CCC#N)C(=O)C1CCC(O)(c2ncc(-c3cc(C)cc(Nc4nccc(C(F)(F)F)n4)c3)s2)CC1 (centres unmarked) [Example 119-40] | < 0.1 µM |
| Cc1cc(Nc2nccc(C(F)(F)F)n2)cc(-c2cnc(C3(O)CCC(C(=O)NCc4cocn4)CC3)s2)c1 (centres unmarked) [Example 119-42] | < 0.1 µM |
| Cc1cc(Nc2nccc(C(F)(F)F)n2)cc(-c2cnc(C3(O)CCC(C(=O)NC4CCCCC4)CC3)s2)c1 (centres unmarked) [Example 119-44] | < 0.1 µM |
| Cc1cc(Nc2nccc(C(F)(F)F)n2)cc(-c2cnc([C@]3(O)CC[C@@H](C(=O)N4CCN(C)CC4)CC3)s2)c1 [Example 119-46] | < 0.1 µM |
| Cc1cc(Nc2nccc(C(F)(F)F)n2)cc(-c2cnc([C@]3(O)CC[C@@H](C(=O)N4CCC(O)CC4)CC3)s2)c1 [Example 119-47] | < 0.1 µM |
| CC(=O)NCCNC(=O)[C@H]1CC[C@](O)(c2ncc(-c3cc(C)cc(Nc4nccc(C(F)(F)F)n4)c3)s2)CC1 [Example 119-49] | < 0.1 µM |
| Cc1cc(Nc2nccc(C(F)(F)F)n2)cc(-c2cnc([C@]3(O)CC[C@@H](C(=O)N(CCO)CCO)CC3)s2)c1 [Example 119-50] | < 0.1 µM |
| Cc1cc(Nc2nccc(C(F)(F)F)n2)cc(-c2cnc([C@]3(O)CC[C@@H](C(=O)NCc4ccccc4)CC3)s2)c1 [Example 119-51] | < 0.1 µM |
| Cc1cc(Nc2nccc(C(F)(F)F)n2)cc(-c2cnc([C@]3(O)CC[C@@H](C(=O)NCc4ccccn4)CC3)s2)c1 [Example 119-54] | < 0.1 µM |
| Cc1cc(Nc2nccc(C(F)(F)F)n2)cc(-c2cnc([C@]3(O)CC[C@@H](C(=O)Nc4ccc(O)cc4)CC3)s2)c1 [Example 119-55] | < 0.1 µM |
| Cc1cc(Nc2nccc(C(F)(F)F)n2)cc(-c2cnc([C@]3(O)CC[C@@H](C(=O)Nc4ccccc4O)CC3)s2)c1 [Example 119-56] | < 0.1 µM |
| Cc1cc(Nc2nccc(C(F)(F)F)n2)cc(-c2cnc(C3(O)CCC(C(=O)N4CCC(C#N)CC4)CC3)s2)c1 (centres unmarked) [Example 119-59] | < 0.1 µM |

| SMILES | IC50 |
| --- | --- |
| Cc1cc(Nc2nccc(C(F)(F)F)n2)cc(-c2cnc(C3(O)CCC(C(=O)N4CCCC(C#N)C4)CC3)s2)c1 (centres unmarked) [Example 119-60] | < 0.1 µM |
| Cc1cc(Nc2nccc(C(F)(F)F)n2)cc(-c2cnc([C@]3(O)CC[C@@H](C(=O)Nc4ccc(F)cc4)CC3)s2)c1 [Example 119-62] | < 0.1 µM |
| Cc1cc(Nc2nccc(C(F)(F)F)n2)cc(-c2cnc([C@]3(O)CC[C@@H](C(=O)NCc4cccs4)CC3)s2)c1 [Example 119-63] | < 0.1 µM |
| CC(=O)N(C)CCNC(=O)C1CCC(O)(c2ncc(-c3cc(C)cc(Nc4nccc(C(F)(F)F)n4)c3)s2)CC1 (centres unmarked) [Example 119-68] | < 0.1 µM |
| Cc1cc(Nc2nccc(C(F)(F)F)n2)cc(-c2cnc(C3(O)CCC(C(=O)N(C)Cc4ccccc4)CC3)s2)c1 (centres unmarked) [Example 119-69] | < 0.1 µM |
| Cc1cc(Nc2nccc(C(F)(F)F)n2)cc(-c2cnc(C3(O)CCC(C(=O)NCCc4ccccc4)CC3)s2)c1 (centres unmarked) [Example 119-70] | < 0.1 µM |
| Cc1cc(Nc2nccc(C(F)(F)F)n2)cc(-c2cnc([C@]3(O)CC[C@@H](C(=O)NCc4cccc(O)c4)CC3)s2)c1 [Example 119-71] | < 0.1 µM |
| Cc1cc(Nc2nccc(C(F)(F)F)n2)cc(-c2cnc([C@]3(O)CC[C@@H](C(=O)Nc4ccc(CO)cc4)CC3)s2)c1 [Example 119-72] | < 0.1 µM |
| Cc1cc(Nc2nccc(C(F)(F)F)n2)cc(-c2cnc([C@]3(O)CC[C@@H](C(=O)Nc4cccc(CO)c4)CC3)s2)c1 [Example 119-73] | < 0.1 µM |
| Cc1cc(Nc2nccc(C(F)(F)F)n2)cc(-c2cnc([C@]3(O)CC[C@@H](C(=O)NCc4ccccc4O)CC3)s2)c1 [Example 119-74] | < 0.1 µM |
| Cc1cc(Nc2nccc(C(F)(F)F)n2)cc(-c2cnc([C@]3(O)CC[C@@H](C(=O)NCc4ccc(O)cc4)CC3)s2)c1 [Example 119-75] | < 0.1 µM |
| Cc1cc(Nc2nccc(C(F)(F)F)n2)cc(-c2cnc([C@]3(O)CC[C@@H](C(=O)Nc4ccc(O)cc4O)CC3)s2)c1 [Example 119-76] | < 0.1 µM |
| Cc1cc(Nc2nccc(C(F)(F)F)n2)cc(-c2cnc(C3(O)CCC(C(=O)NCc4ccc(F)cc4)CC3)s2)c1 (centres unmarked) [Example 119-77] | < 0.1 µM |
| CC(=O)NCCCCNC(=O)[C@H]1CC[C@](O)(c2ncc(-c3cc(C)cc(Nc4nccc(C(F)(F)F)n4)c3)s2)CC1 [Example 119-81] | < 0.1 µM |
| Cc1cc(Nc2nccc(C(F)(F)F)n2)cc(-c2cnc([C@]3(O)CC[C@@H](C(=O)Nc4ccc5[nH]ccc5c4)CC3)s2)c1 [Example 119-82] | < 0.1 µM |
| Cc1cc(Nc2nccc(C(F)(F)F)n2)cc(-c2cnc([C@]3(O)CC[C@@H](C(=O)NCCCc4ccccc4)CC3)s2)c1 [Example 119-83] | < 0.1 µM |
| Cc1cc(Nc2nccc(C(F)(F)F)n2)cc(-c2cnc(C3(O)CCC(C(=O)NCCOc4ccccc4)CC3)s2)c1 (centres unmarked) [Example 119-84] | < 0.1 µM |
| Cc1cc(Nc2nccc(C(F)(F)F)n2)cc(-c2cnc([C@]3(O)CC[C@@H](C(=O)NCc4ccc(O)c(O)c4)CC3)s2)c1 [Example 119-86] | < 0.1 µM |
| Cc1cc(Nc2nccc(C(F)(F)F)n2)cc(-c2cnc([C@]3(O)CC[C@@H](C(=O)NCc4ccc(Cl)cc4)CC3)s2)c1 [Example 119-87] | < 0.1 µM |
| Cc1cc(Nc2nccc(C(F)(F)F)n2)cc(-c2cnc([C@]3(O)CC[C@@H](C(=O)NCCCN4CCCC4=O)CC3)s2)c1 [Example 119-88] | < 0.1 µM |
| Cc1cc(Nc2nccc(C(F)(F)F)n2)cc(-c2cnc(C3(O)CCC(C(=O)NC4CCC(C(N)=O)CC4)CC3)s2)c1 (centres unmarked) [Example 119-90] | < 0.1 µM |

| SMILES | IC50 |
| --- | --- |
| Cc1cc(Nc2nccc(C(F)(F)F)n2)cc(-c2cnc(C3(O)CCC(C(=O)NC4CCC(C(=O)O)CC4)CC3)s2)c1 (centres unmarked) [Example 119-91] | < 0.1 µM |
| COC(=O)N1CCN(C(=O)C2CCC(O)(c3ncc(-c4cc(C)cc(Nc5nccc(C(F)(F)F)n5)c4)s3)CC2)CC1 (centres unmarked) [Example 119-92] | < 0.1 µM |
| Cc1cc(Nc2nccc(C(F)(F)F)n2)cc(-c2cnc(C3(O)CCC(C(=O)NC4CCCc5ccccc54)CC3)s2)c1 (centres unmarked) [Example 119-93] | < 0.1 µM |
| Cc1cc(Nc2nccc(C(F)(F)F)n2)cc(-c2cnc([C@]3(O)CC[C@@H](C(=O)NCc4cn5ccccc5n4)CC3)s2)c1 [Example 119-94] | < 0.1 µM |
| Cc1cc(Nc2nccc(C(F)(F)F)n2)cc(-c2cnc(C3(O)CCC(C(=O)NC4c5ccccc5CC4O)CC3)s2)c1 (centres unmarked) [Example 119-95] | < 0.1 µM |
| Cc1cc(Nc2nccc(C(F)(F)F)n2)cc(-c2cnc([C@]3(O)CC[C@@H](C(=O)NCc4cccc5c4C(=O)NC5)CC3)s2)c1 [Example 119-96] | < 0.1 µM |
| Cc1cc(Nc2nccc(C(F)(F)F)n2)cc(-c2cnc([C@]3(O)CC[C@@H](C(=O)NCc4ccc5c(c4)C(=O)NC5)CC3)s2)c1 [Example 119-97] | < 0.1 µM |
| Cc1cc(Nc2nccc(C(F)(F)F)n2)cc(-c2cnc([C@]3(O)CC[C@@H](C(=O)NCc4ccc5c(c4)CNC5=O)CC3)s2)c1 [Example 119-99] | < 0.1 µM |
| Cc1cc(Nc2nccc(C(F)(F)F)n2)cc(-c2cnc([C@]3(O)CC[C@@H](C(=O)NCc4ccc(C(F)(F)F)cc4)CC3)s2)c1 [Example 119-100] | < 0.1 µM |
| Cc1cc(Nc2nccc(C(F)(F)F)n2)cc(-c2cnc([C@]3(O)CC[C@@H](C(=O)N4CCC(Cc5ccccc5)CC4)CC3)s2)c1 [Example 119-102] | 0.1 to 1 µM |
| Cc1cc(Nc2nccc(C(F)(F)F)n2)cc(-c2cnc([C@]3(O)CC[C@@H](C(=O)NCc4ccc5c(c4)NC(=O)CC5)CC3)s2)c1 [Example 119-103] | < 0.1 µM |
| Cc1cc(Nc2nccc(C(F)(F)F)n2)cc(-c2cnc([C@]3(O)CC[C@@H](C(=O)NCc4ccc(-n5cc(CO)cn5)cc4)CC3)s2)c1 [Example 119-105] | < 0.1 µM |
| Cc1cc(Nc2nccc(C(F)(F)F)n2)cc(-c2cnc(C3(O)CCC(C(=O)NCc4ccc(CC5COC(=O)N5)cc4)CC3)s2)c1 (centres unmarked) [Example 119-106] | < 0.1 µM |
| Cc1cc(Nc2nccc(C)n2)cc(-c2cnc(C3(O)CCC(C(=O)NCC#N)C(C)C3)s2)c1 (centres unmarked) [Example 119-108] | < 0.1 µM |
| Cc1cc(Nc2nccc(C(C)(C)C)n2)cc(-c2cnc(C3(O)CCC(C(N)=O)C(C)C3)s2)c1 (centres unmarked) [Example 119-109] | < 0.1 µM |
| Cc1cc(Nc2nccc(OC(C)C)n2)cc(-c2cnc(C3(O)CCC(C(N)=O)C(C)C3)s2)c1 (centres unmarked) [Example 119-110] | < 0.1 µM |
| Cc1cc(Nc2nccc(C(C)C)n2)cc(-c2cnc(C3(O)CCC(C(=O)NCC#N)C(C)C3)s2)c1 (centres unmarked) [Example 119-113] | < 0.1 µM |
| Cc1cc(Nc2nccc(C)n2)cc(-c2cnc(C3(O)CCC(C(=O)NCc4cccnc4)C(C)C3)s2)c1 (centres unmarked) [Example 119-114] | < 0.1 µM |
| Cc1cc(Nc2nccc(C(C)C)n2)cc(-c2cnc(C3(O)CCC(C(=O)NCc4cccnc4)C(C)C3)s2)c1 (centres unmarked) [Example 119-115] | < 0.1 µM |
| COc1ccnc(Nc2cc(C)cc(-c3cnc(C4(O)CCC(C(N)=O)C(C)(C)C4)s3)c2)n1 (centres unmarked) [Example 119-117] | < 0.1 µM |
